Assay results reported in patent publication US8802720B2, “Acylamino-substituted fused cyclopentanecarboxylic acid derivatives and their use as pharmaceuticals” (SANOFI, priority 2008, dated 2014).

What follows are compounds tested against human Edg-2 receptor (LPA1 receptor) (Homo sapiens, UniProt Q92633) (assay: Edg-2 receptor inhibition by FLIPR calcium fluorescence measurement (LPA-mediated calcium liberation)). Details: CHO cells stably overexpressing human Edg-2 receptor; LPA 18:1 100 nM; fluo-4 fluorescence; triplicate; read-out: Inhibitory concentrations IC50 for inhibition of the Edg-2 receptor.
Chain of human Edg-2 receptor (LPA1 receptor) (Q92633 whole entry): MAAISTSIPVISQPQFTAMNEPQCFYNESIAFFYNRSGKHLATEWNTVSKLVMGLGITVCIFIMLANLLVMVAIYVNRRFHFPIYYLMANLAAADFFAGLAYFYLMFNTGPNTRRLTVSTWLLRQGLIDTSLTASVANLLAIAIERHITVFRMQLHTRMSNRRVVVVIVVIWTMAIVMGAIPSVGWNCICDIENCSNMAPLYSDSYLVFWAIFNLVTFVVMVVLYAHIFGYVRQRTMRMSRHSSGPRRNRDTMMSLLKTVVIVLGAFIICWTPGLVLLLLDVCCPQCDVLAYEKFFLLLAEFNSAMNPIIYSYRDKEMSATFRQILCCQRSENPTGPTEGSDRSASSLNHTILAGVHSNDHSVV
Assay type: cell-based
Experimental: A) Determination of Edg-2 Receptor Inhibition by Fluorescence Imaging Plate Reader (FLIPR) Measurements
The inhibition of the Edg-2 receptor (LPA1 receptor) by the compounds of the invention was quantified by the inhibitory effect on the LPA-mediated calcium liberation in a cell-based calcium fluorescence assay by use of Chinese hamster ovarian (CHO) cells in which the human Edg-2 receptor was stably overexpressed (FIp-In system, Invitrogen). […] Changes in intracellular calcium were determined by fluorescence measurement with the calcium-sensitive dye fluo-4 (Invitrogen) in a fluorescence imaging plate reader (FLIPR, […]).
CHO cells stably overexpressing the human Edg-2 receptor were seeded (40.000 per well) in black clear-bottomed poly-D-lysine-coated 96 well plates (Becton Dickinson, Biocoat cellware) approximately 18-24 h prior to the experiments. Cells were grown in an incubator at 37° C., 5% carbon dioxide and 95% humidity in cell culture media based on F-12 glutamax media (Gibco, #31765) supplemented with 1% (vol/vol) penicilline/streptomycine (PAN, #P06-07100), 10% (vol/vol) fetal calf serum (FCS, PAA, #A15-151) and hygromycin B (Invitrogen, #10687-010) 300 mg/l (final concentrations).
Prior to the FLIPR experiment, cells were loaded with fluo-4 acetoxymethyl ester (fluo-4 AM, Invitrogen, #F14202) for 60 min in an incubator at 37° C., 5% carbon dioxide and 95% humidity in dye-loading buffer consisting of Hanks' Balanced Salt Solution (HBSS, Invitrogen, #14065049) supplemented with fluo-4 AM at 2 μM (all data given for final concentration), Pluronic® F-127 0.05% (vol/vol) (Invitrogen, #P-3000 MP), HEPES 20 mM (Gibco, #15630), probenecid 2.5 mM (Sigma, #P-8761) and bovine serum albumin 0.05% (BSA, Sigma, #A-6003), adjusted to pH 7.5 with sodium hydroxide. During cell loading, fluo-4 AM is cleaved by intracellular esterase resulting in trapping of the dye fluo-4 within the cells. Loading was terminated by washing of the cells in a cell washer (Tecan Power washer) three times with the buffer specified afore but without fluo-4 AM and BSA. This latter buffer was also used as the buffer in the subsequent cell fluorescence measurements.
The dye-loaded and washed cells were pre-incubated for approximately 5 min with various concentrations of the test compound added as a solution in DMSO (0.3% vol/vol maximum final concentration of DMSO), or with DMSO in the respective concentration only (positive control). Subsequent addition of LPA (18:1, 1-oleoyl-sn-glycerol 3-phosphate; 100 nM final concentration) leads to liberation of intracellular calcium from internal stores resulting in a large transient increase of the fluo-4 fluorescence signal which was monitored over approximately 3 min. The percent inhibition caused by the test compound was determined from the maximum fluorescence response after LPA addition to cells pre-incubated with the compound as compared to the maximum fluorescence response after LPA addition to cells pre-incubated with DMSO only. All fluorescence values were corrected for the baseline fluorescence values obtained with cells which were pre-incubated with DMSO only and were not treated with LPA (baseline control). All measurements were performed in triplicate. From the percent inhibitions the inhibitory concentration IC50 was determined.
Work on `C=CC1CN2CCC1CC2COc1cc(C(=O)NC2(C(=O)O)Cc3ccccc3C2)ccc1OC` (stereo not shown) [Example 58] yielded an IC50 of 1 to 30 µM.
In the case of `COc1ccc(C(=O)NC2(C(=O)O)Cc3ccccc3C2)cc1OCCCCC(C)C` [Example 59], the IC50 is reported as 1 to 30 µM.
Work on `COc1ccc(CCCCOc2cc(C(=O)NC3(C(=O)O)Cc4ccccc4C3)ccc2OC)cc1` [Example 60] yielded an IC50 of 1 to 30 µM.
With `COc1ccc(C(=O)NC2(C(=O)O)Cc3ccccc3C2)cc1OCCCC1CCCCC1` [Example 61] the IC50 was 1 to 30 µM.
`COc1ccc(C(=O)NC2(C(=O)O)Cc3ccccc3C2)cc1OCCCc1ccc(Cl)cc1` [Example 62] showed an IC50 of 1 to 30 µM.
In the case of `COc1ccc(C(=O)NC2(C(=O)O)Cc3ccccc3C2)cc1OCCC1CCCN1C` (stereo not shown) [Example 64], the IC50 is reported as 1 to 30 µM.
In the case of `COc1ccc(C(=O)NC2(C(=O)O)Cc3ccccc3C2)cc1OCc1cc(C)ccc1C` [Example 65], the IC50 is reported as 1 to 30 µM.
Compound `COc1ccc(C(=O)NC2(C(=O)O)Cc3ccccc3C2)cc1OCCC1CCN(Cc2ccccc2)CC1` [Example 66] has an IC50 of 1 to 30 µM.
`CCOC(=O)N1CCN(CCOc2cc(C(=O)NC3(C(=O)O)Cc4ccccc4C3)ccc2OC)CC1` [Example 67] gave an IC50 of 1 to 30 µM.
Compound `COc1ccc(C(=O)NC2(C(=O)O)Cc3ccccc3C2)cc1OCCCN1CCCC1=O` [Example 68] has an IC50 of 1 to 30 µM.
`COc1ccc(C(=O)NC2(C(=O)O)Cc3ccccc3C2)cc1OCc1nc2ccccc2n1C` [Example 69] showed an IC50 of 1 to 30 µM.
Work on `COc1ccc(C(=O)NC2(C(=O)O)Cc3ccccc3C2)cc1OCCc1nc(-c2ccccc2)oc1C` [Example 70] yielded an IC50 of 1 to 30 µM.
With `CCn1cc(COc2cc(C(=O)NC3(C(=O)O)Cc4ccccc4C3)ccc2OC)cn1` [Example 71] the IC50 was 1 to 30 µM.
For `COc1ccc(C(=O)NC2(C(=O)O)Cc3ccccc3C2)cc1OCc1csc2ccccc12` [Example 72], the IC50 was 1 to 30 µM.
With `COc1ccc(C(=O)NC2(C(=O)O)Cc3ccccc3C2)cc1OCc1ccc(-n2ccnc2)cc1` [Example 73] the IC50 was 1 to 30 µM.
With `COc1ccc(C(=O)NC2(C(=O)O)Cc3ccccc3C2)cc1OCc1cc(-c2csc(C)n2)on1` [Example 74] the IC50 was 1 to 30 µM.
For `COc1ccc(C(=O)NC2(C(=O)O)Cc3ccccc3C2)cc1OCCSc1nccn1C` [Example 75], the IC50 was 1 to 30 µM.
Compound `COc1ccc(C(=O)NC2(C(=O)O)Cc3ccccc3C2)cc1OCc1ccc(N2CCCC2)nc1` [Example 76] has an IC50 of 1 to 30 µM.
With `COc1ccc(C(=O)NC2(C(=O)O)Cc3ccccc3C2)cc1OCc1ncc(C)c(NC(C)=O)c1C` [Example 77] the IC50 was 1 to 30 µM.
For `COc1ccc(C(=O)NC2(C(=O)O)Cc3ccccc3C2)cc1OCC1CCC(C(=O)O)C1` (stereo not shown) [Example 78], the IC50 was 1 to 30 µM.
`COc1ccc(C(=O)NC2(C(=O)O)Cc3ccccc3C2)cc1OCc1cn(-c2ccccc2)nn1` [Example 79] was tested, and the IC50 was 1 to 30 µM.
`COc1ccc(C(=O)NC2(C(=O)O)Cc3ccccc3C2)cc1OCc1cc(C)n(C)n1` [Example 80] showed an IC50 of 1 to 30 µM.
In the case of `COc1ccc(C(=O)NC2(C(=O)O)Cc3ccccc3C2)cc1OCCC1=CC[C@H]2C[C@@H]1C2(C)C` [Example 81], the IC50 is reported as less than 0.1 µM.
`COc1ccc(C(=O)NC2(C(=O)O)Cc3ccccc3C2)cc1OCC1CC1C` (stereo not shown) [Example 82] gave an IC50 of 1 to 30 µM.
In the case of `CC[C@H](COc1cc(C(=O)NC2(C(=O)O)Cc3ccccc3C2)ccc1OC)N1Cc2ccccc2C1` [Example 83], the IC50 is reported as 1 to 30 µM.
`COc1ccc(C(=O)NC2(C(=O)O)Cc3ccccc3C2)cc1OCCCCCC(=O)O` [Example 84] gave an IC50 of 1 to 30 µM.
Compound `COc1ccc(C(=O)NC2(C(=O)O)Cc3ccccc3C2)cc1OCCCN1CCCCC1` [Example 85] has an IC50 of 1 to 30 µM.
Compound `COc1ccc(C(=O)NC2(C(=O)O)Cc3ccccc3C2)cc1OCCC1CC1` [Example 86] has an IC50 of 1 to 30 µM.
`COc1ccc(C(=O)NC2(C(=O)O)Cc3ccccc3C2)cc1OCC1C[C@H]2C=C[C@@H]1C2` (stereo partly shown) [Example 87] was tested, and the IC50 was 1 to 30 µM.
`COc1ccc(C(=O)NC2(C(=O)O)Cc3ccccc3C2)cc1OCc1c(C)noc1C` [Example 88] gave an IC50 of 1 to 30 µM.
`COc1ccc(C(=O)NC2(C(=O)O)Cc3ccccc3C2)cc1OCc1snnc1-c1ccccc1` [Example 89] gave an IC50 of 1 to 30 µM.
`COc1ccc(C(=O)NC2(C(=O)O)Cc3ccccc3C2)cc1OCC1CC(c2ccccn2)=NO1` (stereo not shown) [Example 90] was tested, and the IC50 was 1 to 30 µM.
For `COc1ccc(C(=O)NC2(C(=O)O)Cc3ccccc3C2)cc1OCCc1cccc(C#N)c1` [Example 94, 2-{3-[2-(3-Cyano-phenyl)-ethoxy]-4-methoxy-benzoylamino}-indane-2-carboxylic acid], the IC50 was less than 0.1 µM.
For `COc1ccc(C(=O)NC2(C(=O)O)Cc3ccccc3C2)cc1OCCc1cccc(C(N)=O)c1` [Example 95, 2-{3-[2-(3-Carbamoyl-phenyl)-ethoxy]-4-methoxy-benzoylamino}-indane-2-carboxylic acid], the IC50 was 1 to 30 µM.
Work on `COc1ccc(C(=O)NC2(C(=O)O)Cc3ccccc3C2)cc1OCCc1cccc(C(=O)O)c1` [Example 96, 2-{3-[2-(3-Carboxy-phenyl)-ethoxy]-4-methoxy-benzoylamino}-indane-2-carboxylic acid] yielded an IC50 of 1 to 30 µM.
In the case of `COc1ccc(C(=O)NC2(C(=O)O)Cc3cscc3C2)cc1OCCc1cccc(C)c1` [Example 98, 5-[4-Methoxy-3-(2-m-tolyl-ethoxy)-benzoylamino]-5,6-dihydro-4H-cyclopenta[c]thiophene-5-carboxylic acid], the IC50 is reported as less than 0.1 µM.
`COc1ccc(C(=O)NC2(C(=O)O)Cc3ccsc3C2)cc1OCCc1cccc(C)c1` (stereo not shown) [Example 99, 5-[4-Methoxy-3-(2-m-tolyl-ethoxy)-benzoylamino]-5,6-dihydro-4H-cyclopenta[b]thiophene-5-carboxylic acid] showed an IC50 of less than 0.1 µM.
`COc1ccc(C(=O)NC2(C(=O)O)Cc3cc(Cl)sc3C2)cc1OCCc1cccc(C)c1` (stereo not shown) [Example 100, 2-Chloro-5-[4-methoxy-3-(2-m-tolyl-ethoxy)-benzoylamino]-5,6-dihydro-4H-cyclopenta[b]thiophene-5-carboxylic acid] showed an IC50 of less than 0.1 µM.
Compound `COc1ccc(C(=O)NC2(C(=O)O)Cc3cccnc3C2)cc1OCCc1cccc(C)c1` (stereo not shown) [Example 101, 6-[4-Methoxy-3-(2-m-tolyl-ethoxy)-benzoylamino]-6,7-dihydro-5H-[1]pyrindine-6-carboxylic acid] has an IC50 of 1 to 30 µM.
`CC(=O)c1sc(C(=O)NC2(C(=O)O)Cc3ccccc3C2)cc1OCCc1cccc(C)c1` [Example 102, 2-{[5-Acetyl-4-(2-m-tolyl-ethoxy)-thiophene-2-carbonyl]-amino}-indane-2-carboxylic acid] showed an IC50 of 0.1 to 1 µM.
Compound `COc1cc([N+](=O)[O-])c(C(=O)NC2(C(=O)O)Cc3ccccc3C2)cc1OCCc1cccc(Cl)c1` [Example 103, 2-{5-[2-(3-Chloro-phenyl)-ethoxy]-4-methoxy-2-nitro-benzoylamino}-indane-2-carboxylic acid] has an IC50 of 1 to 30 µM.
Compound `COc1cc(Br)c(C(=O)NC2(C(=O)O)Cc3ccccc3C2)cc1OCCc1cccc(Cl)c1` [Example 104, 2-{2-Bromo-5-[2-(3-chloro-phenyl)-ethoxy]-4-methoxy-benzoylamino}-indane-2-carboxylic acid] has an IC50 of 1 to 30 µM.
`COc1cc(Cl)c(C(=O)NC2(C(=O)O)Cc3ccccc3C2)cc1OCCc1cccc(Cl)c1` [Example 105, 2-{2-Chloro-5-[2-(3-chloro-phenyl)-ethoxy]-4-methoxy-benzoylamino}-indane-2-carboxylic acid] gave an IC50 of 0.1 to 1 µM.
Work on `COc1c(F)cc(C(=O)NC2(C(=O)O)Cc3ccccc3C2)cc1OCCc1cccc(C)c1` [Example 106, 2-[3-Fluoro-4-methoxy-5-(2-m-tolyl-ethoxy)-benzoylamino]-indane-2-carboxylic acid] yielded an IC50 of less than 0.1 µM.
For `COc1c(OCCc2cccc(C)c2)cc(C(=O)NC2(C(=O)O)Cc3ccccc3C2)cc1[N+](=O)[O-]` [Example 107, 2-[4-Methoxy-3-nitro-5-(2-m-tolyl-ethoxy)-benzoylamino]-indane-2-carboxylic acid], the IC50 was 1 to 30 µM.
In the case of `COc1ccc(C(=O)N(C)C2(C(=O)O)Cc3ccccc3C2)cc1OCCc1cccc(C)c1` [Example 108, 2-{[4-Methoxy-3-(2-m-tolyl-ethoxy)-benzoyl]-methyl-amino}-indane-2-carboxylic acid], the IC50 is reported as 0.1 to 1 µM.
